Assay results as given in patent publication US10479793B2, “Imidazopyridazine compounds useful as modulators of IL-12, IL-23 and/or IFN alpha responses” (BRISTOL-MYERS SQUIBB COMPANY, priority 2015, dated 2019).
Where two headings read alike, the source gives them in different places.

Assays:
[1] = tested on: IL-23 stimulated Kit225 T cells with a stably-integrated STAT-dependent luciferase reporter; assay: Kit225 T cell assay, IL-23 stimulated STAT-dependent luciferase reporter; assay type: cell-based, human; conditions: luciferase, read-out: IL-23 Kit225 Reporter, (IC50)
Experimental: (§1) Kit225 T cells with a stably-integrated STAT-dependent luciferase reporter were plated in RPMI (GIBCO) containing 10% heat-inactivated FBS (GIBCO) and 100 U/mL PenStrep (GIBCO). The cells were then stimulated with either 20 ng/mL human recombinant IL-23 or 200 U/mL human recombinant IFNα (PBL InterferonSource) for 5-6 hours. Luciferase expression was measured using the STEADY-GLO Luciferase Assay System (PROMEGA) according to the manufacturer's instructions.

[2] = target: T1, recombinantly expressed His-tagged protein corresponding to amino acids 575-869 of human Tyk2 (Homo sapiens, UniProt P29597); assay: Probe displacement assay (scintillation proximity, tritiated probe); assay type: binding; conditions: His-tagged Tyk2 (575-869) 2.5 nM, 40 nM radiolabeled probe, 30 minutes at room temperature
T1 construct: made in house
Experimental: The preparation of radiolabeled probe, (R)—N-(1-(3-(8-methyl-5-(methylamino)-8H-imidazo[4,5-d]thiazolo[5,4-b]pyridin-2-yl)phenyl)ethyl)-2-([^3H]methylsulfonyl)benzamide, was performed as described below: […]

[3] = tested on: IFNα stimulated Kit225 T cells with a stably-integrated STAT-dependent luciferase reporter; assay: Kit225 T cell assay, IFNα stimulated STAT-dependent luciferase reporter; assay type: cell-based, human; conditions: 5-6 hours, luciferase, read-out: IFNa Kit225 Reporter, (IC50)
Experimental: as §1

[4] = KIT225, 20 ng/mL human recombinant IL-23, 5-6 hours
[5] = KIT225, 200 U/mL human recombinant IFNα
[6] = Homo sapiens, KIT225, 20 ng/mL human recombinant IL-23, 5-6 hours
[7] = Homo sapiens, KIT225, 200 U/mL human recombinant IFNα

T1 sequence (P29597 with tags, fused parts or gaps): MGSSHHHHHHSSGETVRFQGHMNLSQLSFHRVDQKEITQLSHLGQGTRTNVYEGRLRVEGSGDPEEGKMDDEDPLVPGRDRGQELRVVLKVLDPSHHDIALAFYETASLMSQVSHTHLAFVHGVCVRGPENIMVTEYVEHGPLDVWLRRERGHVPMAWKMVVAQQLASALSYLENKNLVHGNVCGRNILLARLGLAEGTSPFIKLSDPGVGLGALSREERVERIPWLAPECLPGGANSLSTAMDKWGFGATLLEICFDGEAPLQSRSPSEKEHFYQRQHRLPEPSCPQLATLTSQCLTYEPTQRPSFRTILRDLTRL

SMILES	IC50 [1, 4] [nM]	EC50 [2] [nM]	IC50 [3, 5] [nM]	IC50 [1, 6] [nM]	IC50 [3, 7] [nM]
CNc1cc(Nc2ccccc2OC)nn2c(C(=O)NCC(C)(C)O)cnc12 [Example 80]	150	4.83	120	–	–
Cc1cc(C)cc(Nc2cc(NCC(C)C)c3ncc(C(N)=O)n3n2)c1 [Example 53]	9720	200	12400	–	–
Cc1cc(C)cc(Nc2cc(Nc3cc(C)n(C)n3)c3ncc(C(N)=O)n3n2)c1 [Example 62]	13200	300	11000	–	–
CNc1cc(Nc2cc(F)cc(F)c2)nn2c(C(=O)NCC(C)(C)CO)cnc12 [Example 15]	560	20	400	–	–
CNc1cc(Nc2cc(F)cc(F)c2OC)nn2c(C(=O)NCC(C)(C)O)cnc12 [Example 81]	270	7.26	230	–	–
CNc1cc(Nc2cccc(-c3ccccc3)n2)nn2c(C(=O)NC3CC3)cnc12 [Example 86]	–	20	–	290	300
Cc1cc(C)cc(Nc2cc(Nc3cncs3)c3ncc(C(N)=O)n3n2)c1 [Example 61]	2630	50	1940	–	–
N#Cc1cc(Nc2cc(NC3CC3)c3ncc(C(=O)NCCO)n3n2)cc(C(F)(F)F)c1 [Example 35]	8070	160	8480	–	–
Cc1cc(C)cc(Nc2cc(Nc3cccnc3)c3ncc(C(N)=O)n3n2)c1 [Example 64]	12500	70	12500	–	–
CNc1cc(Nc2cccnc2-n2cccn2)nn2c(C(=O)N[C@@H](C)CO)cnc12 [Example 32]	540	50	310	–	–
CNc1cc(Nc2cccnc2-n2cccn2)nn2c(C(=O)NC(C)CO)cnc12 (stereo not drawn) [Example 29]	270	40	410	–	–
CNc1cc(Nc2cccnc2-n2cccn2)nn2c(C(=O)NCCO)cnc12 [Example 30]	350	20	210	–	–
CNc1cc(Nc2cccnc2OC)nn2c(C(=O)NC3CC3)cnc12 [Example 94]	–	1.37	–	20	30
CNc1cc(Nc2cccnc2-n2ccc(C)n2)nn2c(C(=O)NC3CC3)cnc12 [Example 101]	–	270	–	7190	5790
CNc1cc(N(C)c2ccccc2)nn2c(C(=O)NC3CC3)cnc12 [Example 76]	–	50	–	3550	2790
CCCCCNc1cc(Nc2cc(C)cc(C)c2)nn2c(C(N)=O)cnc12 [Example 55]	2380	80	3620	–	–
CNc1cc(Nc2ccccn2)nn2c(C(=O)N[C@@H]3C[C@@H]3F)cnc12 [Example 22]	–	5.46	–	250	180
CNc1cc(Nc2c(F)c(F)cc(F)c2F)nn2c(C(N)=O)cnc12 [Example 19]	270	5.86	170	–	–
CNc1cc(Nc2cc(F)cc(F)c2F)nn2c(C(=O)NCC(C)(C)O)cnc12 [Example 14]	370	7.03	260	–	–
CNc1nc(Nc2cc(C)cc(C)c2)nn2c(C(N)=O)cnc12 [Example 69]	420	5.44	150	–	–
CNc1cc(N2CCc3ccccc32)nn2c(C(=O)NC3CC3)cnc12 [Example 78]	180	8.17	70	–	–
CNc1cc(Nc2cc(C)cc(F)c2)nn2c(C(=O)NCC(C)(C)O)cnc12 [Example 9]	–	5.91	–	250	170
CNc1cc(Nc2cccnc2-n2cccn2)nn2c(C(=O)NCC(C)(C)O)cnc12 [Example 31]	580	130	2580	–	–
CNc1cc(Nc2cccc(-c3ccc(C(F)(F)F)cc3F)c2)nn2c(C(=O)NC3CC3)cnc12 [Example 116]	1100	65.5	1200	–	–
CNc1cc(Nc2cccc(-c3ccc(OC(F)(F)F)cc3)n2)nn2c(C(=O)NC3(C#N)CC3)cnc12 [Example 23]	420	40	660	–	–
CNc1cc(Nc2cccnc2OC)nn2c(C(=O)NCCO)cnc12 [Example 25]	50	6.05	90	–	–
Cc1cc(C)cc(Nc2cc(NCCCN(C)C)c3ncc(C(N)=O)n3n2)c1 [Example 50]	2320	70	1280	–	–
CNc1cc(N2CCc3ccccc32)nn2c(C(=O)NC3CCC3)cnc12 [Example 10]	160	7.57	80	–	–
CNc1cc(Nc2cccc(-n3ccc(C(F)(F)F)n3)n2)nn2c(C(=O)NC3CC3)cnc12 [Example 89]	390	10	440	–	–
CNc1cc(Nc2cc(F)cc(F)c2OC)nn2c(C(=O)NC3CC3)cnc12 [Example 79]	–	6.95	–	70	50
